Measurements taken from patent publication US9266883B2, “Ring-fused bicyclic pyridyl derivatives as FGFR4 inhibitors” (Novartis AG, priority 2013, dated 2016).

Assays:
[1] = molecular target: FGFR4 (GST-FGFR4(388-802)) (Homo sapiens (Human), UniProt P22455); assay: In-vitro biochemical kinase assay for FGFR4 (Caliper microfluidic mobility shift); details: read-out: Biochemical FGFR4 IC50
[2] = molecular target: Tel-FGFR4 (Homo sapiens (Human), UniProt P22455); assay: In vitro cellular kinase assay for FGFR4 (BaF3-Tel-FGFR4 cells, MSD capture ELISA of tyrosine phosphorylation); format: cell-based; details: BaF3-Tel-FGFR4 cells, 1 hour incubation; read-out: Cellular BaF3 FGFR4 IC50
Sequence of Tel-FGFR4 (P22455 other isoform, or with tags, fused parts or gaps): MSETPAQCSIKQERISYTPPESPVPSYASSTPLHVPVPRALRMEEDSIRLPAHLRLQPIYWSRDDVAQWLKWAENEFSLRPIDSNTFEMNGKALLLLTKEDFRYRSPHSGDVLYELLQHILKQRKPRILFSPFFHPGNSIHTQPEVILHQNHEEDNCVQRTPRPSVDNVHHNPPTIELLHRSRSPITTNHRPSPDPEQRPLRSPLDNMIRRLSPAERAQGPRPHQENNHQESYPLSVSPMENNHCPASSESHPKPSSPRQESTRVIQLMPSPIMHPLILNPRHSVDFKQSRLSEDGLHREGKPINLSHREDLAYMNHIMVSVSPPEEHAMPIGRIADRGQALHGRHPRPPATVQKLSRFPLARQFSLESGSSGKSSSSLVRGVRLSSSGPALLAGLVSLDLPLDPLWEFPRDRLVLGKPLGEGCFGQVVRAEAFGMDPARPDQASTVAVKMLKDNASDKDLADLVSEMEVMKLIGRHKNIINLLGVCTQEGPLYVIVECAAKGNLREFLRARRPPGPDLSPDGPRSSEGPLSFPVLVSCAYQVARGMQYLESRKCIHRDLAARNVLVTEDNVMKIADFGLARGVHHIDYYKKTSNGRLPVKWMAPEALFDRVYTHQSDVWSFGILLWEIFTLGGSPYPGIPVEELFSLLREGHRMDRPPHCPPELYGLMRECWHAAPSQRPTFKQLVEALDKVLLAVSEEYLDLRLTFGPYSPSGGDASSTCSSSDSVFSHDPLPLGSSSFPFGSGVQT

[3] = molecular target: FGFR1 (407-822) (Homo sapiens (Human), UniProt P11362); assay: In vitro biochemical assay for FGFR1
Sequence of FGFR1 (407-822) (P11362 407-822): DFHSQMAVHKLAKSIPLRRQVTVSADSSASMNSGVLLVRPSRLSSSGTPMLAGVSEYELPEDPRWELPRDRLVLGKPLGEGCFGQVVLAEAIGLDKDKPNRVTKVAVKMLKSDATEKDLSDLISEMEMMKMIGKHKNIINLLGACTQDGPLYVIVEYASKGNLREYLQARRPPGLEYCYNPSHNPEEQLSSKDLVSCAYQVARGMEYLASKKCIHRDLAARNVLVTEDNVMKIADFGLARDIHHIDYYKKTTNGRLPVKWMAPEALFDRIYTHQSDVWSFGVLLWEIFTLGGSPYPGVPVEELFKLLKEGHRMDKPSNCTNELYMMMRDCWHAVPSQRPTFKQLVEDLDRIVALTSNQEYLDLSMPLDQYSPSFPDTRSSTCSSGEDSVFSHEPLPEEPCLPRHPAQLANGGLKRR

[4] = molecular target: FGFR2 (406-821) (Homo sapiens (Human), UniProt P21802); assay: In vitro biochemical assay for FGFR2
Sequence of FGFR2 (406-821) (P21802 406-821): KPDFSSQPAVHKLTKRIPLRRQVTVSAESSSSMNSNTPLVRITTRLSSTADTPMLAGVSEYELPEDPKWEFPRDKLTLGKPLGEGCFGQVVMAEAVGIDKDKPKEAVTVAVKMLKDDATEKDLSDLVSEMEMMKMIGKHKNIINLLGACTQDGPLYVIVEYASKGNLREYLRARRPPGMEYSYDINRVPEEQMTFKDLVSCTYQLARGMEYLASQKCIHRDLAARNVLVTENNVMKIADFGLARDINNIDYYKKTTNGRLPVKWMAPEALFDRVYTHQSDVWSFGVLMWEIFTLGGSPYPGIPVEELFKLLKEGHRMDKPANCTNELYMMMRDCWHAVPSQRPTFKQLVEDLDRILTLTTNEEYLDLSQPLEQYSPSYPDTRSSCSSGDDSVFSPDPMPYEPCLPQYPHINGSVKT

[5] = molecular target: FGFR3 (411-806) (Homo sapiens (Human), UniProt P22607); assay: In vitro biochemical assay for FGFR3
Sequence of FGFR3 (411-806) (P22607 411-806): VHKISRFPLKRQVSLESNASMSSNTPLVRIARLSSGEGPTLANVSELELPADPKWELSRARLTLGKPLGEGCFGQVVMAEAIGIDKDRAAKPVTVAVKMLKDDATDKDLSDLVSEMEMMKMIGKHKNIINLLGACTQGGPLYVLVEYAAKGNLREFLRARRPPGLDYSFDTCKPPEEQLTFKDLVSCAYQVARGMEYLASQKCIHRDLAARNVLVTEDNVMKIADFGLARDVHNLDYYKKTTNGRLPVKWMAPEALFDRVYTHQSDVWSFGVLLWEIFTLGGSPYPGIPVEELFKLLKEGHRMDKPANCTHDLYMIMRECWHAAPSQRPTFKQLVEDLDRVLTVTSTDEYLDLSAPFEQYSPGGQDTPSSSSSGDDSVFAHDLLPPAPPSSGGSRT

[6] = system: HuH-7 hepatocellular carcinoma cells; assay: CellTiter Glo (CTG) Assay; details: Homo sapiens, Huh-7, 72 h, read-out: HUH7 proliferation (nM) CTG

Sequence of FGFR4 (GST-FGFR4(388-802)) (P22455 388-802): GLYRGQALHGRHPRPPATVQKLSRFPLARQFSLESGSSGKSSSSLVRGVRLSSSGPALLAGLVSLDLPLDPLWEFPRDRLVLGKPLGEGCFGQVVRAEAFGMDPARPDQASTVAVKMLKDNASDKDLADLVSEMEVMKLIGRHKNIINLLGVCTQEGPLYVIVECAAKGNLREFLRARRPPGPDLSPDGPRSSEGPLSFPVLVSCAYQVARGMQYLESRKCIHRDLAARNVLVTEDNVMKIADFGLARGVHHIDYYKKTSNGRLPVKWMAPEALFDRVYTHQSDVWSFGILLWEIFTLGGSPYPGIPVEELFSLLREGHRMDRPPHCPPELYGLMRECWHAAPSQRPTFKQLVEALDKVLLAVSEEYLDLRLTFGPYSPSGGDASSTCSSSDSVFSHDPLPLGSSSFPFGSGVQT

SMILES | IC50 [1] | IC50 [2] | IC50 [3] | IC50 [4] | IC50 [5] | IC50 [6]
COCCOc1cc(NC(=O)N2CCCc3cc(CN(C)C)c(C=O)nc32)ncc1C#N [Example 64, N-(5-cyano-4-(2-methoxyethoxyl)pyridin-2-yl)-6-((dimethylamino)methyl)-7-formyl-3,4-dihydro-1,8-naphthyridine-1(2H)-carboxamide] | 0.16 µM | 0.713 µM | > 10 µM | > 10 µM | > 10 µM | 
COCC(C)Oc1cc(NC(=O)N2CCCc3cc(CO)c(C=O)nc32)ncc1C#N (racemic) [Example 48, N-(5-cyano-4-((1-methoxypropan-2-yl)oxy)pyridin-2-yl)-7-formyl-6-(hydroxymethyl)-3,4-dihydro-1,8-naphthyridine-1(2H)-carboxamide] | 0.0032 µM | 0.0088 µM | > 10 µM | > 10 µM | > 10 µM | 
N#Cc1cnc(NC(=O)N2CCCc3cc(CO)c(C=O)nc32)cc1NCC1CCCOC1 (racemic) [Example 55, N-(5-cyano-4-(((tetrahydro-2H-pyran-3-yl)methyl)amino)pyridin-2-yl)-7-formyl-6-(hydroxymethyl)-3,4-dihydro-1,8-naphthyridine-1(2H)-carboxamide] |  |  | > 10 µM | > 10 µM | > 10 µM | 202 nM
COCCNc1cc(NC(=O)N2c3nc(C=O)c(CN4CCN(C)CC4=O)cc3CC[C@@H]2C)ncc1C#N [Example 228, (S)-N-(5-cyano-4-((2-methoxyethyl)amino)pyridin-2-yl)-7-formyl-2-methyl-6-((4-methyl-2-oxopiperazin-1-yl)methyl)-3,4-dihydro-1,8-naphthyridine-1(2H)-carboxamide] | 0.0006 µM | 0.0062 µM | > 10 µM | > 10 µM | > 10 µM | 62 nM
N#Cc1ccc(NC(=O)N2CCC(O)c3ccc(C=O)nc32)nc1 (racemic) [Example 79, N-(5-cyanopyridin-2-yl)-7-formyl-4-hydroxy-3,4-dihydro-1,8-naphthyridine-1(2H)-carboxamide] | 0.0325 µM | 0.194 µM | > 10 µM | > 10 µM | > 10 µM | 
COCCOc1cc(NC(=O)N2CCCCc3ccc(C=O)nc32)ncc1C#N [Example 202, N-(5-cyano-4-(2-methoxyethoxyl)pyridin-2-yl)-2-formyl-7,8-dihydro-5H-pyrido[2,3-b]azepine-9(6H)-carboxamide] |  |  | > 10 µM | > 10 µM | > 10 µM | > 3000 nM
CC(=O)N1CCN(Cc2cc3c(nc2C=O)N(C(=O)Nc2cc(OC(C)C)c(C#N)cn2)CCC3)CC1 [Example 134, 6-((4-acetylpiperazin-1-yl)methyl)-N-(5-cyano-4-isopropoxypyridin-2-yl)-7-formyl-3,4-dihydro-1,8-naphthyridine-1(2H)-carboxamide] | 0.0019 µM | 0.0205 µM | > 10 µM | > 10 µM | > 10 µM | 450 nM
O=Cc1ccc2c(n1)N(C(=O)Nc1ccc(C(F)(F)F)cn1)CCC2 [Example 1, 7-formyl-N-(5-(trifluoromethyl)pyridin-2-yl)-3,4-dihydro-1,8-naphthyridine-1(2H)-carboxamide] |  |  | > 10 µM | > 10 µM | > 10 µM | 
COCCNc1cc(NC(=O)N2CCCc3cc(CN(C)C(=O)COC)c(C=O)nc32)ncc1C#N [Example 148, N-(5-cyano-4-((2-methoxyethyl)amino)pyridin-2-yl)-7-formyl-6-((2-methoxy-N-methylacetamido)methyl)-3,4-dihydro-1,8-naphthyridine-1(2H)-carboxamide] |  |  | > 10 µM | > 10 µM | > 10 µM | 45.5 nM
O=Cc1ccc2c(n1)N(C(=O)Nc1ccc(C(F)(F)F)cn1)CCO2 [Example 14, 6-formyl-N-(5-(trifluoromethyl)pyridin-2-yl)-2H-pyrido[3,2-b][1,4]oxazine-4(3H)-carboxamide] |  |  | > 10 µM | > 10 µM | > 10 µM | 
CN1CCN(Cc2cc3c(nc2C=O)N(C(=O)Nc2cc(NC45CC(C4)C5)c(C#N)cn2)CCC3)C(=O)C1 [Example 237, N-(4-(bicyclo[1.1.1]pentan-1-ylamino)-5-cyanopyridin-2-yl)-7-formyl-6-((4-methyl-2-oxopiperazin-1-yl)methyl)-3,4-dihydro-1,8-naphthyridine-1(2H)-carboxamide] | 0.0019 µM | 0.019 µM | > 10 µM | > 10 µM | > 10 µM | 18 nM
COCCNc1cc(NC(=O)N2CCCc3cc(CN4CCOCC4=O)c(C=O)nc32)ncc1C#N [Example 98, N-(5-cyano-4-((2-methoxyethyl)amino)pyridin-2-yl)-7-formyl-6-((3-oxomorpholino)methyl)-3,4-dihydro-1,8-naphthyridine-1(2H)-carboxamide] |  |  | > 10 µM | > 10 µM | > 10 µM | 
N#Cc1cnc(NC(=O)N2CCCc3cc(CO)c(C=O)nc32)cc1O[C@H]1CCOC1 [Example 50, (S)-N-(5-cyano-4-((tetrahydrofuran-3-yl)oxy)pyridin-2-yl)-7-formyl-6-(hydroxymethyl)-3,4-dihydro-1,8-naphthyridine-1(2H)-carboxamide] |  |  | > 10 µM | > 10 µM | > 10 µM | 
CC(C)Oc1cc(NC(=O)N2CCc3ccc(C=O)nc32)ncc1C#N [Example 234, N-(5-cyano-4-isopropoxypyridin-2-yl)-6-formyl-2,3-dihydro-1H-pyrrolo[2,3-b]pyridine-1-carboxamide] |  |  | > 10 µM | > 10 µM | > 10 µM | 
COCCOc1cc(NC(=O)N2CCCc3cc(C(F)F)c(C=O)nc32)ncc1C#N [Example 63, N-(5-cyano-4-(2-methoxyethoxyl)pyridin-2-yl)-6-(difluoromethyl)-7-formyl-3,4-dihydro-1,8-naphthyridine-1(2H)-carboxamide] |  |  | > 10 µM | > 10 µM | > 10 µM | 
COCCOc1cc(NC(=O)N2CCCc3cc(CO)c(C=O)nc32)ncc1C#N [Example 39, N-(5-cyano-4-(2-methoxyethoxyl)pyridin-2-yl)-7-formyl-6-(hydroxymethyl)-3,4-dihydro-1,8-naphthyridine-1(2H)-carboxamide] |  |  | > 10 µM | > 10 µM | > 10 µM | 
COCCOc1cc(NC(=O)N2CCCc3cc(C4CC4)c(C=O)nc32)ncc1C#N [Example 62, N-(5-cyano-4-(2-methoxyethoxyl)pyridin-2-yl)-6-cyclopropyl-7-formyl-3,4-dihydro-1,8-naphthyridine-1(2H)-carboxamide] |  |  | > 10 µM | > 10 µM | > 10 µM | 599 nM
CN(C)CC(C)(O)CNc1cc(NC(=O)N2CCCc3cc(CO)c(C=O)nc32)ncc1C#N (racemic) [Example 87, N-(5-cyano-4-((3-(dimethylamino)-2-hydroxy-2-methylpropyl)amino)pyridin-2-yl)-7-formyl-6-(hydroxymethyl)-3,4-dihydro-1,8-naphthyridine-1(2H)-carboxamide] |  |  | > 10 µM | > 10 µM | > 10 µM | 
CC(C)Nc1cc(NC(=O)N2CCCc3cc(CN4CCN(C)CC4=O)c(C=O)nc32)ncc1C#N [Example 95, N-(5-cyano-4-(isopropylamino)pyridin-2-yl)-7-formyl-6-((4-methyl-2-oxopiperazin-1-yl)methyl)-3,4-dihydro-1,8-naphthyridine-1(2H)-carboxamide] |  |  | > 10 µM | > 10 µM | > 10 µM | 45 nM
N#Cc1ccc(NC(=O)N2CCCCc3ccc(C=O)nc32)nc1 [Example 201, N-(5-cyanopyridin-2-yl)-2-formyl-7,8-dihydro-5H-pyrido[2,3-b]azepine-9(6H)-carboxamide] |  |  | > 10 µM | > 10 µM | > 10 µM | 
COCCNc1cc(NC(=O)N2CCCc3cc(-c4cnc(C)s4)c(C=O)nc32)ncc1C#N [Example 252, N-(5-cyano-4-((2-methoxyethyl)amino)pyridin-2-yl)-7-formyl-6-(2-methylthiazol-5-yl)-3,4-dihydro-1,8-naphthyridine-1(2H)-carboxamide] |  |  | > 10 µM | > 10 µM | > 10 µM | 395 nM
CCOc1cc(NC(=O)N2CCCc3ccc(C=O)nc32)ncc1C#N [Example 19, N-(5-cyano-4-ethoxypyridin-2-yl)-7-formyl-3,4-dihydro-1,8-naphthyridine-1(2H)-carboxamide] |  |  | > 10 µM | > 10 µM | > 10 µM | 
N#Cc1cnc(NC(=O)N2CCCc3ccc(C=O)nc32)cn1 [Example 12, N-(5-cyanopyrazin-2-yl)-7-formyl-3,4-dihydro-1,8-naphthyridine-1(2H)-carboxamide] |  |  | > 10 µM | > 10 µM | > 10 µM | 
COCCNc1cc(NC(=O)N2CCCc3cc(N4CCC(C)C4=O)c(C=O)nc32)ncc1C#N (racemic) [Example 261, N-(5-cyano-4-((2-methoxyethyl)amino)pyridin-2-yl)-7-formyl-6-(3-methyl-2-oxopyrrolidin-1-yl)-3,4-dihydro-1,8-naphthyridine-1(2H)-carboxamide] |  |  | > 10 µM | > 10 µM | > 10 µM | 2540 nM
N#Cc1cnc(NC(=O)N2CCCc3cc(CO)c(C=O)nc32)cc1NC1CCOC1 (racemic) [Example 56, N-(5-cyano-4-((tetrahydrofuran-3-yl)amino)pyridin-2-yl)-7-formyl-6-(hydroxymethyl)-3,4-dihydro-1,8-naphthyridine-1(2H)-carboxamide] |  |  | > 10 µM | > 10 µM | > 10 µM | 
